Assays:
[1] = system: HCT-116; assay: Antiproliferative activity against human HCT116 cells after 72 hrs by CCK8 assay; type: functional, cell-based; details: HCT-116, 72 h
[2] = system: A549; assay: Antiproliferative activity against human A549 cells after 72 hrs by CCK8 assay; type: functional, cell-based; details: A549, 72 h

Row | Structure (SMILES) | IC50 [1] [nM] | IC50 [2] [nM]
1 | CCc1ncc(/C=C2\C(=O)Nc3ccc(C(=O)N[C@H](CO)c4ccccc4)cc32)[nH]1 | 2860 | 29800
2 | O=C1Nc2ccc(C(=O)N[C@H](CO)c3ccccc3)cc2/C1=C(/c1ncc[nH]1)c1ccccc1F | 88 | 666
3 | Cc1nc(/C(=C2\C(=O)Nc3ccc(C(=O)N[C@H](CO)c4ccccc4)cc32)c2ccccc2)[nH]c1C | 2580 | 17700
4 | O=C1Nc2ccc(C(=O)N[C@H](CO)c3ccccc3)cc2/C1=C(/c1ncc[nH]1)c1ccccc1Cl | 635 | 1280

More lines, now with the values ahead:

Row | IC50 [1] [nM] | IC50 [2] [nM] | Structure (SMILES)
5 | 77 | 511 | Cc1c[nH]c(/C(=C2\C(=O)Nc3ccc(C(=O)N[C@H](CO)c4ccccc4)cc32)c2ccccc2)n1
6 | 39 | 463 | Cc1nc(Nc2n[nH]c3c2CN(C(=O)N[C@H](CN(C)C)c2ccccc2)C3(C)C)c2sccc2n1 [PF-03758309]
7 | 4090 | 56100 | Cc1ncc(/C=C2\C(=O)Nc3ccc(C(=O)N[C@H](CO)c4ccccc4)cc32)[nH]1
